Reference: patent publication US6528675B1, “Cyanohydrin ethers and esters as high-sensitivity enzyme substrates” (The Regents of the University of California, priority 2001, dated 2003)

Columns and labels:
porcine esterase [1] = assay: Sensitivity of substrate to enzyme strength; format: biochemical; conditions: pH 8.0, 10 μM substrate, 1 unit=1 μmol/min/mL
Method: This example illustrates the sensitivity of the substrate to the enzyme, and compares a substrate in accordance with the present invention to two prior art substrates. […] The enzyme was porcine esterase.
A tris-maleate buffer at pH 8.0 (0.1 M) was used. The procedure consisted of adding substrate to a test tube containing 3 mL of buffer to a final substrate concentration of 10 μM, then adding porcine esterase at strengths of 0.06, 0.09. 0.12, 0.18, 0.30, 0.60, 0.9 and 1.2 unit, in which 1 unit=1 μmol/min/mL. […] The enzyme sensitivities for each substrate and detection method were defined as the minimal amount of enzyme per mL required to produce a signal from the substrate that was at least three times greater than the background noise.

[2] = test system: esterase from a rat liver microsomal preparation; assay: Specific activity of esterase against substrates; format: biochemical, Fisher 344 rats; conditions: Rat liver microsome, pH 8.0, 10 μM substrate, fluorescence 330/460 nm
Method: (§1) The esterases were porcine esterase purchased from Sigma Chemical Company, St. Louis, Mo., USA, esterase from a rat liver microsomal preparation from 8-week-old Fisher 344 rats, and homogenates of Heliothis virescens from both pyrethroid-susceptible and -resistant strains of tobacco budworm. The substrate in each case was added to a tris-maleate buffer (pH 8.0, 0.1 m) to a final substrate concentration of 10 μM, followed by the addition of the enzyme preparation. The samples were then immediately read by fluorometer at 460 nm for one minute (excitation at 330 nm). The results are listed in Table VI, where “Compound I” denotes the Example 1 substrate, and “Compound II” denotes the Example 4 substrate.

[3] = Substrate stability in buffer, fluorescence detection; format: physicochemical; conditions: 5 min, 10 μM
Method: (§2) The same two invention substrates and two prior art substrates were tested for stability by both UV detection and fluorescence detection under typical assay conditions.
(§3) Tris maleate buffers (0.1 M) at pH ranging from 6.0 to 9.0 in intervals of 1.0 were used, and substrate was added to 10 μM final concentration. […] The fluorescence samples were read with excitation at 360 nm and emission at 460 nm (for pH 6.0), 465 nm (for pH 7.0), 485 nm (pH 8.0), and 510 nm (pH 9.0) for the methylumbelyl acetate, and with excitation at 330 nm and emission at 460 nm for the two test compounds, in all cases, the readings over 5-minute periods.

[4] = Change in optical properties, fluorescence of esters and hydrolysis products; format: physicochemical
Excerpt: The substrates representing the invention were (R/S)-acetic acid cyano-(6-methoxynaphthalen-2-yl)-methyl ester (the title compound of Synthesis Example 1 above) and (trans/cis)-3-(2,2-dichlorovinyl)-2,2-dimethylcyclopropanecarboxylic acid cyano-(6-methoxynaphthalen-2-yl)-methyl ester (the title compound of Synthesis Example 2 above). The substrates of the prior art were methylumbelyl acetate (for detection by fluorescence emission) and 2-naphthacetate (for detection by UV absorption) in assay solutions with different pH values. These prior art substrates were selected because both are widely used and both have aromatic systems similar to the two test compounds.
Again using tris-maleate at pH levels of 6.5, 7.5, and 8.5, fluorescence studies were performed at concentrations of 10 μM, and fluorescence of the starting esters and the hydrolysis products (hydroxycoumarin in the case of methylumbelyl acetate and 6-methoxy-naphthaldehyde in the case of the Example 1 substrate) were determined by conventional instrumentation. The results are listed in Table III in which “MUA” denotes methylumbelyl acetate, “Compound I” denotes the Example 1 substrate, “Ex” denotes the optimal excitation wavelength in nm, “Emmax” denotes the maximal emission wavelength in nm, and “RFU” denotes the relative fluorescence units multiplied by 1,000.

porcine esterase [5] = assay: Specific activity of esterase against substrates; format: biochemical; conditions: pH 8.0, 10 μM substrate, fluorescence 330/460 nm
Method: as §1

[6] = test system: homogenate of Heliothis virescens, pyrethroid-susceptible strain; assay: Specific activity of esterase against substrates; format: biochemical; conditions: H. virescens (susceptible), pH 8.0, 10 μM substrate, fluorescence 330/460 nm
Method: as §1

[7] = test system: homogenate of Heliothis virescens, pyrethroid-resistant strain; assay: Specific activity of esterase against substrates; format: biochemical; conditions: H. virescens (resistant), pH 8.0, 10 μM substrate, fluorescence 330/460 nm
Method: as §1

[8] = Change in optical properties, UV absorption of esters and hydrolysis products; format: physicochemical; conditions: for ε (molar absorptivity): in M-1 cm-1 (unit assumed)
Excerpt: The substrates representing the invention were (R/S)-acetic acid cyano-(6-methoxynaphthalen-2-yl)-methyl ester (the title compound of Synthesis Example 1 above) and (trans/cis)-3-(2,2-dichlorovinyl)-2,2-dimethylcyclopropanecarboxylic acid cyano-(6-methoxynaphthalen-2-yl)-methyl ester (the title compound of Synthesis Example 2 above).

[9] = Substrate stability in buffer, UV detection; format: physicochemical; conditions: 5 min, 10 μM
Method: as §2, §3

[10] = Rate of conversion of cyanohydrin to aldehyde as a function of pH; format: physicochemical; conditions: pH 8.0 or greater, tris-maleate 0.1 M, 25° C.
Method: This example illustrates the rate of conversion of a cyanohydrin formed in the practice of this invention to its corresponding aldehyde. The cyanohydrin used in this example is hydroxy-(6-methoxynaphthalen-2-yl) acetonitrile, which is the cyanohydrin formed by the action of an esterase on the substrate of Example 1.
The rate of cyanohydrin-to-aldehyde conversion was determined as a function of pH at constant ionic strength (0.1 M) and temperature (25° C.), using a series of tris-maleate buffers with different pH values ranging from 6.0 to 9.0 at intervals of 0.5. Conversion was initiated by the addition of 3 μL of 10 mM of cyanohydrin, and the formation of 6-methoxy-2-naphthaldehyde, measured in pmol cyanohydrin converted per second per mL, was detected by fluorescence excitation at 330 nm and emission at 460 nm over a time period of 20 minutes. […] The rate of aldehyde conversion increases rapidly at pH 8.0 or greater with maximum fluorescence achieved in less than 20 seconds.

Question: What does the source list for `COc1ccc2cc(C(C#N)OC(C)=O)ccc2c1` (racemic) [Compound I, (R/S)-Acetic Acid Cyano-(6-methoxy-naphthalen-2-yl) Methyl Ester]?
Answer: Sensitivity (minimal amount of enzyme per mL giving a signal at least three times background noise) (porcine esterase [1]; Fluorescence detection): 0.00002; Sensitivity (minimal amount of enzyme per mL giving a signal at least three times background noise) (porcine esterase [1]; UV detection): 0.001; Specific Activity [2]: 39,800 ± 600 pmol/min/mg protein; Substrate stability, Fluorescence ([3]; pH 6): <1 pmol/min; Substrate stability, Fluorescence ([3]; pH 7): 8 pmol/min; Substrate stability, Fluorescence ([3]; pH 8): 59 pmol/min; Substrate stability, Fluorescence ([3]; pH 9): 138 pmol/min; emission peak ([4]; over the three pH levels tested (6.5, 7.5, 8.5)): 366 nm; Emmax (maximal emission wavelength) ([4]; tris-maleate pH 6.5, 10 μM): 410 nm; Ex (optimal excitation wavelength) ([4]; tris-maleate pH 6.5, 10 μM): 360 nm; RFU (relative fluorescence units multiplied by 1,000) ([4]; tris-maleate pH 6.5, 10 μM): 241 RFU; Emmax (maximal emission wavelength) ([4]; tris-maleate pH 7.5, 10 μM): 450 nm; Ex (optimal excitation wavelength) ([4]; tris-maleate pH 7.5, 10 μM): 360 nm; RFU (relative fluorescence units multiplied by 1,000) ([4]; tris-maleate pH 7.5, 10 μM): 581 RFU; Emmax (maximal emission wavelength) ([4]; tris-maleate pH 8.5, 10 μM): 450 nm; Ex (optimal excitation wavelength) ([4]; tris-maleate pH 8.5, 10 μM): 360 nm; RFU (relative fluorescence units multiplied by 1,000) ([4]; tris-maleate pH 8.5, 10 μM): 3,708 RFU; Specific Activity (porcine esterase [5]): 2,911,000 ± 1,780 pmol/min/mg protein; Specific Activity [6]: 9,700 ± 220 pmol/min/mg protein; Specific Activity [7]: 25,100 ± 425 pmol/min/mg protein; OD (optical density) ([8]; tris-maleate pH 6.5, 10 μM): 0.086; λmax ([8]; tris-maleate pH 6.5, 10 μM): 287 nm; ε (molar absorptivity) ([8]; tris-maleate pH 6.5, 10 μM): 3,000; OD (optical density) ([8]; tris-maleate pH 7.5, 10 μM): 0.137; λmax ([8]; tris-maleate pH 7.5, 10 μM): 287 nm; ε (molar absorptivity) ([8]; tris-maleate pH 7.5, 10 μM): 3,420; OD (optical density) ([8]; tris-maleate pH 8.5, 10 μM): 0.142; λmax ([8]; tris-maleate pH 8.5, 10 μM): 287 nm; ε (molar absorptivity) ([8]; tris-maleate pH 8.5, 10 μM): 3,550; melting point: 84 to 85 °C; Substrate stability, UV Absorption ([9]; pH 6): <0.01 mAbs/min; Substrate stability, UV Absorption ([9]; pH 7): <0.01 mAbs/min; Substrate stability, UV Absorption ([9]; pH 8): <0.01 mAbs/min; Substrate stability, UV Absorption ([9]; pH 9): 0.103 mAbs/min

Question: For `COc1ccc2cc(C(O)C#N)ccc2c1` (centres unmarked) [cyanohydrin, hydroxy-(6-methoxynaphthalen-2-yl) acetonitrile], which “time to maximum fluorescence (cyanohydrin-to-aldehyde conversion)” value [10] is on record?
Answer: less than 20 seconds
